According to patent US20060083830A1, “Polylysine-containing food additive and acidic adjuvant” (priority 2004, published 2006):
Several values for one entry are separate records, joined by “and”; a condition that tells them apart may be missing. Equal entries are not always repeated.

System: Listeria monocytogenes
Test: L. monocytogenes on cooked ground turkey balls blended with ε-polylysine, vacuum packaged, stored at 10° C., CFU determination
Assay type: cell-based
Details: for Log Reduction: vs control Group A
Method: Six groups of 20 g ground uncooked turkey balls were prepared, with 27 balls prepared per group. […] Groups B-F were blended with varying amounts of ε-polylysine (“ε-PL”). Final concentrations of ε-polylysine within the turkey balls were:
After preparation, all meatballs were placed on baking sheets and baked in a conventional oven at 350° F. for 20 minutes. After baking, the meatballs were packaged separately and stored at 4° C.
The mixture was further diluted 1:10,000 times with sterile saline to produce a suspension for use.
20 microliters of the Listeria monocytogenes suspension was inoculated onto the exterior of each turkey ball. Turkey balls were incubated at room temperature for 30 min post-inoculation to allow bacteria to attach. Turkey balls were individually vacuum packaged and stored at 10° C.
The microbiological assay was performed after 3 hours, 24 hours, 1 week, 2 weeks, 3 weeks, 4 weeks, 5 weeks, 7 weeks, and 8 weeks. After each designated time period had passed, three bags from each group of meat balls were unpacked, transferred to a stomacher bag along with 20 ml of sterile 0.1% peptone water. Each meatball was hand crushed and stomached at high speed for 2 minutes. […] The letter “{overscore (A)}” denotes average.

poly(imino(2-amino-1-oxo-1,6-hexanediyl)) [ε-PL]
CFU/g (1000 ppm ε-PL, after 1 week): 5.35E+06 CFU/g and 3.75E+06 CFU/g and 4.05E+06 CFU/g | average Log Value (1000 ppm ε-PL, after 1 week): 6.64 | average of CFU/g (1000 ppm ε-PL, after 1 week): 4.38E+06 CFU/g | Log Reduction (1000 ppm ε-PL, after 1 week): 1.64 | average Log Value (1000 ppm ε-PL, after 2 weeks): 7.61 | average of CFU/g (1000 ppm ε-PL, after 2 weeks): 4.09E+07 CFU/g | Log Reduction (1000 ppm ε-PL, after 2 weeks): 0.68 | average Log Value (1000 ppm ε-PL, after 3 weeks): 6.73 | average of CFU/g (1000 ppm ε-PL, after 3 weeks): 5.24E+06 CFU/g | Log Reduction (1000 ppm ε-PL, after 3 weeks): 1.66 | average Log Value (1000 ppm ε-PL, after 4 weeks): 7.73 | average of CFU/g (1000 ppm ε-PL, after 4 weeks): 5.42E+07 CFU/g | Log Reduction (1000 ppm ε-PL, after 4 weeks): 0.74 | average Log Value (1000 ppm ε-PL, after 5 weeks): 7.98 | average of CFU/g (1000 ppm ε-PL, after 5 weeks): 9.64E+07 CFU/g | Log Reduction (1000 ppm ε-PL, after 5 weeks): 0.44 | average Log Value (1000 ppm ε-PL, after 7 weeks): 7.80 | average of CFU/g (1000 ppm ε-PL, after 7 weeks): 6.33E+07 CFU/g | Log Reduction (1000 ppm ε-PL, after 7 weeks): 0.62 | average Log Value (1000 ppm ε-PL, after 8 weeks): 7.66 | average of CFU/g (1000 ppm ε-PL, after 8 weeks): 4.53E+07 CFU/g | Log Reduction (1000 ppm ε-PL, after 8 weeks): 0.68 | CFU/g (1000 ppm ε-PL, after 3 hours): 2.34E+02 CFU/g and 1.54E+02 CFU/g and 1.56E+02 CFU/g | average Log Value (1000 ppm ε-PL, after 3 hours): 2.26 | average of CFU/g (1000 ppm ε-PL, after 3 hours): 1.81E+02 CFU/g | Log Reduction (1000 ppm ε-PL, after 3 hours): 0.53 | average Log Value (1000 ppm ε-PL, after 24 hours): 3.25 | average of CFU/g (1000 ppm ε-PL, after 24 hours): 1.77E+03 CFU/g | Log Reduction (1000 ppm ε-PL, after 24 hours): >0.48 | average Log Value (2000 ppm ε-PL, after 1 week): 4.74 | average of CFU/g (2000 ppm ε-PL, after 1 week): 5.50E+04 CFU/g | Log Reduction (2000 ppm ε-PL, after 1 week): 3.54 | average Log Value (2000 ppm ε-PL, after 2 weeks): 4.98 | average of CFU/g (2000 ppm ε-PL, after 2 weeks): 9.57E+04 CFU/g | Log Reduction (2000 ppm ε-PL, after 2 weeks): 3.31 | average Log Value (2000 ppm ε-PL, after 3 weeks): 4.68 | average of CFU/g (2000 ppm ε-PL, after 3 weeks): 4.73E+04 CFU/g | Log Reduction (2000 ppm ε-PL, after 3 weeks): 3.72 | average Log Value (2000 ppm ε-PL, after 4 weeks): >6.44 | average of CFU/g (2000 ppm ε-PL, after 4 weeks): >2.76E+06 CFU/g | Log Reduction (2000 ppm ε-PL, after 4 weeks): <2.03 | average Log Value (2000 ppm ε-PL, after 5 weeks): 5.90 | average of CFU/g (2000 ppm ε-PL, after 5 weeks): 7.91E+05 CFU/g | Log Reduction (2000 ppm ε-PL, after 5 weeks): 2.53 | average Log Value (2000 ppm ε-PL, after 7 weeks): 6.66 | average of CFU/g (2000 ppm ε-PL, after 7 weeks): 4.53E+06 CFU/g | Log Reduction (2000 ppm ε-PL, after 7 weeks): 1.77 | average Log Value (2000 ppm ε-PL, after 8 weeks): 6.19 | average of CFU/g (2000 ppm ε-PL, after 8 weeks): 1.54E+06 CFU/g | Log Reduction (2000 ppm ε-PL, after 8 weeks): 2.15 | CFU/g (2000 ppm ε-PL, after 3 hours): 1.94E+02 CFU/g and 1.96E+02 CFU/g and 1.50E+02 CFU/g | average Log Value (2000 ppm ε-PL, after 3 hours): 2.26 | average of CFU/g (2000 ppm ε-PL, after 3 hours): 1.80E+02 CFU/g | Log Reduction (2000 ppm ε-PL, after 3 hours): 0.53 | CFU/g (2000 ppm ε-PL, after 24 hours): 1.98E+02 CFU/g and 2.64E+02 CFU/g and 2.14E+02 CFU/g | average Log Value (2000 ppm ε-PL, after 24 hours): 2.35 | average of CFU/g (2000 ppm ε-PL, after 24 hours): 2.25E+02 CFU/g | Log Reduction (2000 ppm ε-PL, after 24 hours): >1.37 | post-lethality effect (3000 ppm): > 1 log | average Log Value (3000 ppm ε-PL, after 1 week): 1.00 | average of CFU/g (3000 ppm ε-PL, after 1 week): 1.00E+01 CFU/g | Log Reduction (3000 ppm ε-PL, after 1 week): 7.28 | average Log Value (3000 ppm ε-PL, after 2 weeks): 1.44 | average of CFU/g (3000 ppm ε-PL, after 2 weeks): 2.73E+01 CFU/g | Log Reduction (3000 ppm ε-PL, after 2 weeks): 6.85 | average Log Value (3000 ppm ε-PL, after 3 weeks): <1.67 | average of CFU/g (3000 ppm ε-PL, after 3 weeks): <4.67E+01 CFU/g | Log Reduction (3000 ppm ε-PL, after 3 weeks): >6.72 | average Log Value (3000 ppm ε-PL, after 4 weeks): <0.43 | average of CFU/g (3000 ppm ε-PL, after 4 weeks): <2.67E+00 CFU/g | Log Reduction (3000 ppm ε-PL, after 4 weeks): >8.05 | CFU/g (3000 ppm ε-PL, after 5 weeks): <2.00E+00 CFU/g | average Log Value (3000 ppm ε-PL, after 5 weeks): <0.30 | average of CFU/g (3000 ppm ε-PL, after 5 weeks): <2.00E+00 CFU/g | Log Reduction (3000 ppm ε-PL, after 5 weeks): >8.12 | average Log Value (3000 ppm ε-PL, after 7 weeks): <1.08 | average of CFU/g (3000 ppm ε-PL, after 7 weeks): <1.20E+01 CFU/g
